According to publication PMC9817100, “Preclinical profiles of SKB264, a novel anti-TROP2 antibody conjugated to topoisomerase inhibitor, demonstrated promising antitumor efficacy compared to IMMU-132” (Frontiers in Oncology, 2022):

Columns and labels:
DNA topoisomerase I = target: T1, DNA topoisomerase I (Homo sapiens, UniProt P11387); experiment: topoisomerase I-mediated DNA relaxation assay (cell-free); type: biochemical; settings: read-out: DNA topoisomerase I inhibition (IC50)
T1 sequence (P11387 1-765): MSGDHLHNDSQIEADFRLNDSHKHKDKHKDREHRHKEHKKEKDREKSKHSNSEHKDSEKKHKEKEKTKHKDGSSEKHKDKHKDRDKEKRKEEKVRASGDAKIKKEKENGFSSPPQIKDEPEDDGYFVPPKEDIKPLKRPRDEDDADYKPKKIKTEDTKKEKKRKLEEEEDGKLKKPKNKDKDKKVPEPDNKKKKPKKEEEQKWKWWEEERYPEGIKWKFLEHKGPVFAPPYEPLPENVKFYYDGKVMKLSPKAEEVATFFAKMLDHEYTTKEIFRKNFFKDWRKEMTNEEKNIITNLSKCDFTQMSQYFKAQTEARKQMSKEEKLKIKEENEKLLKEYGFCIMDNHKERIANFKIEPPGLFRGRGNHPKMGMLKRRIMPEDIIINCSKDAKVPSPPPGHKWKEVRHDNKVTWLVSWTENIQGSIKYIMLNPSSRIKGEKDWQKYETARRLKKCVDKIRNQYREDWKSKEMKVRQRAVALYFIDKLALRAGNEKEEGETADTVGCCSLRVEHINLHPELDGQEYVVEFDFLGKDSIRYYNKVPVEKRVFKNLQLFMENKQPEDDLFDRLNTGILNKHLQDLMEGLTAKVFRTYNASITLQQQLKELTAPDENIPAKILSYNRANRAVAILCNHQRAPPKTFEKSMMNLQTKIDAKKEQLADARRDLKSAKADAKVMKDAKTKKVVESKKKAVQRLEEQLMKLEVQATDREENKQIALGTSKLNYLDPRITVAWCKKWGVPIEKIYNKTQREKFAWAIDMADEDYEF
Source text: SKB264 is a TROP2-targeting ADC, which consists of a recombinant humanized anti-TROP2 antibody and a topoisomerase I inhibitor derived from Belotecan (KL610023), integrated together via a sulfonyl pyrimidine-CL2A-carbonate linker. The payload is conjugated with the antibody through irreversible nucleophilic aromatic substitution by tris (2-carboxyethyl) phosphine hydrochloride (TCEP HCl), a reducing agent that can reduce the interchain disulfide bounds. The drug-to-antibody ratio (DAR) of SKB264 was approximately 7.4, which was determined by the reversed-phase chromatography (RPC), and might be the theoretical maximum drug loading number for conventional interchain cysteine conjugation ( Figure 1B ). SKB264 was designed to release payload KL610023 after internalization by TROP2-expressing tumor cells. The inhibitory effect of KL610023 on topoisomerase I was almost similar to that of SN-38, as measured by a topoisomerase I-mediated DNA relaxation assay ( Figure 1C ).
Figure 1 Structure and characterization of SKB264. […] (B) The distribution of the conjugated drug determined by the reverse-phase chromatography analysis (L-0: Unconjugated light chain, L-1: Light chain conjugated with one payload, H-0: Unconjugated heavy chain, H-1: Heavy chain conjugated with one payload, H-2: Heavy chain conjugated with two payloads, H-3: Heavy chain conjugated with three payloads). […]

HCC1806 xenograft = experiment: PK-PD study, single dose, HCC1806 xenograft; type: in vivo, BALB/c nude mice; settings: tumor; payload after single i.v. 3 mg/kg SKB264 (KL610023) or IMMU-132 (SN-38); HCC1806 tumor-bearing mice; mean, n = 5
Method: Phoenix WinNonlin 8.1 was used to calculate the PK parameters in the non-compartment model, including t 1/2, T max, C max, AUC0-t, and AUC0-∞. […] The half maximal effective concentration (EC50) and half maximal inhibitory concentration (IC50) were calculated using a nonlinear regression model with sigmoidal fitting. The in vitro antitumor activities of drugs were evaluated by a two-tailed paired t-test.

[1] = metabolic related experiments (hepatic circulation); settings: unlike SN-38
[2] = tissue distribution after single i.v. injection in tumor-bearing nude mice; type: in vivo; settings: [3H]KL610023 0.1 mg/100 µCi/kg single i.v.; HCC1806 xenografted nude mice
Method: A total of 96 female nude mice bearing human HCC1806 tumor cells were divided into 16 groups (n = 6 mice/group) according to body weights and tumor volumes. After receiving a single i.v. injection of [^3H]KL610023, at 0.083, 4, 24, and 72 h, as well as a single i.v. injection of [^3H-KL610023]SKB264, [^3H]SKB264-mAb, or [^3H-mAb]SKB264 at 1, 24, 168, and 336 h post-dosing, blood, tumor tissue, and 16 types of normal tissues were collected from the euthanized mice.
Plasma samples were directly quantified by liquid scintillation counting (LSC) without further manipulation; however, the blood and tissue samples were digested with 1N of KOH at 90°C prior to quantification by LSC. The […] (TRA) for blood, plasma, and tissues was converted to nanogram equivalent of [^3H]KL610023 or TRA (ng Eq./g).

NCI-H23(TROP2+) = experiment: cytotoxic assay (CellTiter-Glo, 72 h) NCI-H23 (TROP2+); type: cell-based; settings: Homo sapiens, read-out: IC50 cell growth inhibition
Method: (§1) Tumor cells were seeded on 96-well plates at the following concentrations: HCC1806 (3,000 cells per well), NCI-N87 (5,000 cells per well), BxPC-3 (2,000 cells per well), Calu-3 (8,000 cells per well), NCI-H23 (TROP2+, 3,000 cells per well), and NCI-H23 (parental, 3,000 cells per well). After overnight incubation, the diluted testing items were added respectively. After 72 h, cell viability was evaluated using a CellTiter-Glo Luminescent Cell Viability Assay (Promega Corp. Madison, WI), following the manufacturer’s instruction.

Calu-3 (TROP2+) = experiment: cytotoxic assay (CellTiter-Glo, 72 h) Calu-3; type: cell-based; settings: Homo sapiens, read-out: IC50 cell growth inhibition
Method: as §1

## CC[C@@]1(O)C(=O)OCc2c1cc1n(c2=O)Cc2c-1nc1ccccc1c2CCN(C(C)C)S(C)(=O)=O [KL610023]
DNA topoisomerase I
  IC50: 700 nM
HCC1806 xenograft
  AUC0-∞ of payload: 1949 ng·h/g
  AUClast of payload: 1903 ng·h/g
[1]
  hepatic circulation: no hepatic circulation
[2]
  distribution of total radioactivity: widely distributed in the tissues and organs that had more abundant blood flow
NCI-H23(TROP2+)
  IC50: 4.77 nM
Calu-3 (TROP2+)
  IC50: 1.36 nM
